Results published in US20260158136A1, “MEDICAMENT FOR TREATMENT AND/OR PREVENTION OF CANCER” (TORAY INDUSTRIES, INC., priority 2022, published 2026).

Experiments:
Format in all cases: cell-based
[1] = tested on: human colon cancer cell line (HCT116); assay: THP-1-mediated phagocytic activity against HCT116, anti-CAPRIN-1 antibody with palbociclib or cisplatin (Example 5); settings: for phagocytic activity of combination test group compared with test group without a drug used in combination: Dunnett's test, with anti-CAPRIN-1 antibody, FIG. 5; for phagocytic activity against cancer cells: drug combination test group: HCT116 cultured 2 days with palbociclib 10 μM or cisplatin 1 μM, then anti-CAPRIN-1 humanized antibody #1 1 μg/mL + THP-1, 1 h
Protocol: (§1) Specifically, in each inhibitor combination test group, the indicated drug used in combination was applied to human cancer cells, and then the cancer cells were cocultured with human monocytic cells (THP-1) in the presence of the anti-CAPRIN-1 antibody, and the antibody-mediated phagocytic activity against the cancer cells by THP-1 was evaluated.
The human-derived cancer cell used was a colon cancer cell line HCT116. On a 6-well plate, the human-derived cancer cells were cultured for 2 days in the presence of the respective drugs used in combination, for the palbociclib combination test group. Specifically, palbociclib was added at a concentration of 10 μM and cisplatin at a concentration of 1 μM to HCT 116. As a control, a test group without a drug used in combination, in which only the anti-CAPRIN-1 antibody was added, was established. In the control group, the cancer cells were cultured for 2 days without addition of the drug used in combination beforehand.
(§2) Each cancer cell line after the culture was dissociated with TrypLE Express (Thermo), and the cancer cells were stained by the addition of calcein-AM at a final concentration of 0.04 μg/mL and incubation at 37° C. for 10 minutes. Next, the cells were dispensed at 1×10^4 cancer cells per well to a 96-well plate, and the anti-CAPRIN-1 antibody at a final concentration of 1 μg/mL and 10×10^5 THP-1 cells were added to each well, followed by culture at 37° C. for 1 hour under a condition of 5% CO2. Then, the cells were washed with PBS (phosphate buffer solution) containing 1% FBS (fetal bovine serum), and the human monocytic cells were stained through a reaction with an APC (allophycocyanin)-labeled anti-human CD45 antibody (final concentration: 0.25 μg/mL). Further, dead cells were stained with propidium iodide (PI) (final concentration: 0.1 μg/mL), followed by the measurement of fluorescence from the cells by flow cytometry. PI-positive dead cells were excluded from analysis. The human monocytic cells THP-1 recognize an antibody bound onto cancer cells and phagocytize the cancer cells. At that time, if the cancer cells have been stained with calcein-AM, the monocytic cells ingesting the cancer cells by phagocytosis also become positive to calcein-AM. Thus, the phagocytic activity in this evaluation system was calculated as the ratio (%) of APC-positive/calcein-AM-positive cells to the whole calcein-AM-positive population.

[2] = tested on: human colon cancer cell line (HCT116); assay: THP-1-mediated phagocytic activity against HCT116, anti-CAPRIN-1 antibody with palbociclib or abemaciclib, control IgG included (Example 2B); settings: Dunnett's test, p<0.001; anti-CAPRIN-1 antibody treatment group; FIG. 2
Protocol: as §1, with “CDK” for “each”, “evaluated. A human IgG antibody (Sigma-Aldrich Co. LLC, Cat. No.: 4506) was used as a control antibody.” for “evaluated.”
(§3) The human-derived cancer cell used was a colon cancer cell line HCT116. On a 6-well plate, the human-derived cancer cells were cultured for 2 days in the presence of the palbociclib (10 M) or abemaciclib (1 μM), for the CDK inhibitor combination test group. As a control, a test group without a drug used in combination, in which only the anti-CAPRIN-1 antibody was added, was established. […]
(§4) Each cancer cell line after the culture was dissociated with TrypLE Express (Thermo), and the cancer cells were stained by the addition of calcein-AM at a final concentration of 0.04 μg/mL and incubation at 37° C. for 10 minutes. […] Further, dead cells were stained with propidium iodide (PI) (final concentration: 0.1 μg/mL), followed by the measurement of fluorescence from the cells by flow cytometry. […] Thus, the phagocytic activity in this evaluation system was calculated as the ratio (%) of APC-positive/calcein-AM-positive cells to the whole calcein-AM-positive population.

[3] = tested on: human colon cancer cell line (HCT116); assay: THP-1-mediated phagocytic activity against HCT116, anti-CAPRIN-1 antibody with palbociclib or abemaciclib (Example 2A); settings: Student's t test, p<0.001; with anti-CAPRIN-1 antibody; FIG. 1
Protocol: as §1, with “CDK” for “each”
as §3, with “of” for “of the”, “μM)” for “M)”, “μM)” for “μM),”
as §4

[4] = tested on: human colon cancer cell line (HCT116); assay: THP-1-mediated phagocytic activity against HCT116, anti-CAPRIN-1, anti-CD20 or anti-HER-2 antibody alone or with palbociclib (Example 4)
Protocol: The human-derived cancer cell used was a colon cancer cell line HCT116. On a 6-well plate, the human-derived cancer cells were cultured for 2 days in the presence of the respective drugs used in combination for the palbociclib combination test group. Specifically, palbociclib was added at a concentration of 10 μM to HCT 116. […] In the control group, the cancer cells were cultured for 2 days without addition of palbociclib beforehand.
as §2, with “Next, the cells were dispensed at 1×10^4 cancer cells per well to a 96-well plate, and the anti-CAPRIN-1 antibody at a final concentration of 1 μg/mL and 10×10^5 THP-1 cells were added to each well, followed by culture at 37° C. for 1 hour under a condition of 5% CO2.” left out, “[…]).” for “μg/mL).”

[5] = tested on: human colon cancer cell line (HCT116); assay: THP-1-mediated phagocytic activity against HCT116, anti-CAPRIN-1 antibody with ribociclib (Example 3)
Protocol: as §1, with “CDK” for “each”, “ribociclib” for “drug used in combination”
The human-derived cancer cell used was a colon cancer cell line HCT116. On a 6-well plate, the human-derived cancer cells were cultured for 2 days in the presence of the ribociclib (30 μM), for the CDK inhibitor combination test group. As a control, a test group without a drug used in combination, in which only the anti-CAPRIN-1 antibody was added, was established. In the control group, the cancer cells were cultured for 2 days without addition of the drug used in combination beforehand.
as §2, with “5×10^3” for “1×10^4”, “1.25×10^5” for “10×10^5”, “At that time, if the cancer cells have been stained with calcein-AM, the monocytic cells ingesting the cancer cells by phagocytosis also become positive to calcein-AM.” left out

Compound | phagocytic activity of combination test group compared with test group without a drug used in combination [1] | phagocytic activity against cancer cells [1] [%] | phagocytic activity of combination test group compared with test group without a drug used in combination [2] | phagocytic activity of combination test group compared with test group without a drug used in combination [3] | further results
CC(=O)c1c(C)c2cnc(Nc3ccc(N4CCNCC4)cn3)nc2n(C2CCCC2)c1=O [palbociclib, 6-acetyl-8-cyclopentyl-5-methyl-2-[(5-piperazin-1-ylpyridin-2-yl)amino]pyrido[2,3-d]pyrimidin-7-one] | significantly higher | ≥ 54 | significantly higher | significantly higher | 
N.N.[Cl][Pt][Cl] [cisplatin] | no significant change | ≤ 23 |  |  | 
anti-CD20 antibody: anti-CD20 antibody ("Rituxan") purchased from Chugai Pharmaceutical Co., Ltd. |  |  |  |  | effect of palbociclib combination on phagocytic activity compared with antibody without a drug used in combination ([4]; palbociclib 10 μM, Dunnett's test, FIG. 4): not remarkably increased; phagocytic activity against cancer cells ([4]; palbociclib combination test group: HCT116 cultured 2 days with palbociclib 10 μM, then antibody at final concentration 1 μg/mL + THP-1, 1 h): ≤ 11%; phagocytic activity against cancer cells ([4]; test group without a drug used in combination: antibody only, 1 μg/mL + THP-1, 1 h): ≤ 7%
CCN1CCN(Cc2ccc(Nc3ncc(F)c(-c4cc(F)c5nc(C)n(C(C)C)c5c4)n3)nc2)CC1 [abemaciclib, N-[5-[(4-ethylpiperazin-1-yl)methyl]pyridin-2-yl]-5-fluoro-4-(7-fluoro-2-methyl-3-propan-2-ylbenzimidazol-5-yl)pyrimidin-2-amine] |  |  | significantly higher | significantly higher | 
CN(C)C(=O)c1cc2cnc(Nc3ccc(N4CCNCC4)cn3)nc2n1C1CCCC1 [ribociclib, 7-cyclopentyl-N,N-dimethyl-2-[(5-piperazin-1-ylpyridin-2-yl)amino]pyrrolo[2,3-d]pyrimidine-6-carboxamide] |  |  |  |  | phagocytic activity of combination test group compared with test group without a drug used in combination ([5]; Dunnett's test, p<0.001, with anti-CAPRIN-1 antibody, FIG. 3): significantly higher; increase of antitumor effect of the anti-CAPRIN-1 antibody by the combination ([5]; combination versus antibody alone, HCT116): ≥ 2.5 times; phagocytic activity against cancer cells ([5]; ribociclib combination test group: HCT116 cultured 2 days with ribociclib 30 μM, then anti-CAPRIN-1 humanized antibody #1 1 μg/mL + THP-1, 1 h): ≥ 58%
